Data: patent US8816089B2, “Methods for controlling SR protein phosphorylation, and antiviral agents whose active ingredients comprise agents that control SR protein activity” (priority 2003, dated 2014)

What was measured:
HIV = HIV infection experiment in MT-4 cells, HIVp24 by Lumipulse ELISA; settings: supernatant after 48 hours
sindbis virus = format: cell-based
PKA = settings: final concentration of 10 μM
Slc:SD rats = assay: Single-dose oral administration toxicity test
Description: The toxicity of SRPIN-1 was tested by single-dose oral administration to rats. SRPIN-1 was orally administered at a dose of 125, 250, 500, 1000, or 2000 mg/kg (in a volume of 10 ml per kg) to Slc:SD rats (five weeks old; Japan SLC, Inc.) whose weight gain and general conditions were normal during the acclimatization period. Each group included two males and two females. The animals were fasted from the evening of the day before administration until about four hours after administration. […] Then, SRPIN-1 was likewise orally administered at a dose of 2000 mg/kg to five male and five female Slc:SD rats (five weeks old).

PRP4 = PRP4 (Homo sapiens, UniProt Q13523); assay: Kinase phosphorylation assay, same technique as for SRPK1; format: biochemical; settings: final concentration of 10 μM
Chain of PRP4 (Q13523 whole entry): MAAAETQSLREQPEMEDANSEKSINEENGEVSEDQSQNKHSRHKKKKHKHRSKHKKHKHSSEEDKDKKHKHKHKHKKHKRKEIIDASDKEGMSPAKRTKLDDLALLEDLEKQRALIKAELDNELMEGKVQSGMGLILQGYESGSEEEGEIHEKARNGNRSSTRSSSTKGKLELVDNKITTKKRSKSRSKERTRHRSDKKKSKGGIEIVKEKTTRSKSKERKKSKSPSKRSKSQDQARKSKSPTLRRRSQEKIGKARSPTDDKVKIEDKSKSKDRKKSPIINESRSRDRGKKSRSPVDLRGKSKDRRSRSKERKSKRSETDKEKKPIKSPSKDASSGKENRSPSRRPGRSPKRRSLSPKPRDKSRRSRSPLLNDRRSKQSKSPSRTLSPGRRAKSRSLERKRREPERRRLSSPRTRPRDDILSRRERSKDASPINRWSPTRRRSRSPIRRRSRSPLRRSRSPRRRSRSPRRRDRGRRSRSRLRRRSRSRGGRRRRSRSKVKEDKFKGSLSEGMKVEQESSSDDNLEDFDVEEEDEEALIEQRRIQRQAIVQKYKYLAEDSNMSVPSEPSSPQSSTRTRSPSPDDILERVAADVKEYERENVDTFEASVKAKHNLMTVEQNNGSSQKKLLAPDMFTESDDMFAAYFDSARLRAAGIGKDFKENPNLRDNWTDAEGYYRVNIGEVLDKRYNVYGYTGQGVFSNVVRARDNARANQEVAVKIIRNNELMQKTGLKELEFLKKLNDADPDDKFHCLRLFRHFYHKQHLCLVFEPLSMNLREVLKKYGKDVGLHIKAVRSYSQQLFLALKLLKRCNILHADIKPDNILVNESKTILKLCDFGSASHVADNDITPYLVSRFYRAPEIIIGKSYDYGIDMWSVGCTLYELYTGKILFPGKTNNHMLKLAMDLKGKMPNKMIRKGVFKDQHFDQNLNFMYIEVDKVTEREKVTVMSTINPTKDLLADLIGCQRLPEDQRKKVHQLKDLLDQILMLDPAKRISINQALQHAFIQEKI

SRp75 protein = assay: In vivo inhibition of SR protein phosphorylation and induction of SR protein degradation, Western blot of HA-SRp75; format: cell-based, human; settings: Flp-In-293 cells, SRPIN-1 10, 20, or 50 μM with MG132 10 μM, 15 hours
Description: FIG. 4C: Evaluation of in-vivo inhibition of SR protein phosphorylation using SRPIN-1, and evaluation of the induction of the accompanying SR protein degradation. HA-SRp75 plasmid was introduced into Flp-In293 cells. After 36 hours, MG132 (final concentration: 10 μM) and SRPIN-1 (10, 20, or 50 μM) were added to the cells. The cells were incubated for 15 hours and then lysed. After SDS-PAGE, the samples were analyzed by Western blotting using anti-HA antibody. Western analysis was also carried out using an antibody against beta actin as a control protein amount.
HA-SRp75 plasmid (1.0 μg) was introduced into Flp-In-293 cells. After 36 hours, MG132 (final concentration: 10 μM) and SRPIN-1 (10, 20, or 50 μM) were added, and the cells were incubated for 15 hours. Then, the cells were lysed with SDS-PAGE sample buffer. The lysate was used as a protein sample. The sample was fractionated by SDS-PAGE and analyzed by Western blotting using the anti-HA antibody. In addition, as a control for protein amount, Western analysis was carried out using anti-beta actin antibody.

SRPK2 = SRPK2 (Homo sapiens, UniProt P78362); assay: Kinase phosphorylation assay, same technique as for SRPK1; format: biochemical; settings: final concentration of 10 μM
Chain of SRPK2 (P78362 whole entry, species assumed): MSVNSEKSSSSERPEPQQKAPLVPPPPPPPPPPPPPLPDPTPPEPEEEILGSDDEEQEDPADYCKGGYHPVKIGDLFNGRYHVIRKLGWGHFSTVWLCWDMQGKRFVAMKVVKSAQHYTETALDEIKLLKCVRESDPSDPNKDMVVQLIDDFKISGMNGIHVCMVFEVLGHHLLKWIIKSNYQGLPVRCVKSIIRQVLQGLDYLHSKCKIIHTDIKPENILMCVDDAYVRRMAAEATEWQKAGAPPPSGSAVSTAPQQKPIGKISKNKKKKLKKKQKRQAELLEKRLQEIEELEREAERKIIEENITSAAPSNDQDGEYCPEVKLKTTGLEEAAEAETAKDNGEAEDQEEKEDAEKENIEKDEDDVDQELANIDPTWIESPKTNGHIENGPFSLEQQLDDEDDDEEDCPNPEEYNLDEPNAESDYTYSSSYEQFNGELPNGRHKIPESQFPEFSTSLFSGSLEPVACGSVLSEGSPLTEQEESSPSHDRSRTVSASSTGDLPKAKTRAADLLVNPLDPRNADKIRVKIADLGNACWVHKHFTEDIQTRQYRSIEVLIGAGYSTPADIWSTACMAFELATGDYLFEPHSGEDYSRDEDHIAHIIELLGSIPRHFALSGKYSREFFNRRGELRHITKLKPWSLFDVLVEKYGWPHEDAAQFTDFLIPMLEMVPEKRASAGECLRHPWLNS

SRPK1 = biological target: T1, SRPK1 (Homo sapiens, UniProt Q96SB4); assay: SRPK1 phosphorylation activity assay with RS peptide and [γ-32P]ATP; format: biochemical
T1 construct: made in house; host or cells: E. coli
T1 sequence (Q96SB4 whole entry, species assumed): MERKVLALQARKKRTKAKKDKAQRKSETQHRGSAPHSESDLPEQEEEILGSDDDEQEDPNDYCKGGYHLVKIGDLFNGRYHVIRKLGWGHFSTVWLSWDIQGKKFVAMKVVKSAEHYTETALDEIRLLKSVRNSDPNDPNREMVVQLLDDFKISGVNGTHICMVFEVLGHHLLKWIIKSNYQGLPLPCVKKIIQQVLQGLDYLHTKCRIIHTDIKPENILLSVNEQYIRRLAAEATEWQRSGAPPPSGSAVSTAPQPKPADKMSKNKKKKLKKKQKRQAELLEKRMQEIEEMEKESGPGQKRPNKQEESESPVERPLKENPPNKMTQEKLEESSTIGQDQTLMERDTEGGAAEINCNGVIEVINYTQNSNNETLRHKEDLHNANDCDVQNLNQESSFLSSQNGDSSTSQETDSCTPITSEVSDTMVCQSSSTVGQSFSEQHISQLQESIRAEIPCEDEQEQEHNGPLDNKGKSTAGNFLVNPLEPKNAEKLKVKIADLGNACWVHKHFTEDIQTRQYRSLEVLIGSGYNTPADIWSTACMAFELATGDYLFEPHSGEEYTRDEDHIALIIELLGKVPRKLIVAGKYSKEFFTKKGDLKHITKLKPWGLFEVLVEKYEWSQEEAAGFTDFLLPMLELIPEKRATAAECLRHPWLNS

SARS virus (FFM-1) = format: cell-based
[1] = tested on: Chinese hamster CHL cells; assay: Chromosomal screening test for mutagenicity in mammalian cells
Cytomegalovirus = settings: HFL1 cells
PKC = assay: Kinase phosphorylation assay, same technique as for SRPK1; format: biochemical; settings: final concentration of 10 μM

O=C(Nc1cc(C(F)(F)F)ccc1N1CCCCC1)c1ccncc1 [Compound No. 340, N-[2-(1-piperidinyl)-5-(trifluoromethyl)phenyl]isonicotinamide]
effect in suppressing HIV replication (HIVp24) (HIV; MT-4 cells, 5, 10, or 20 μM): strong effects in suppressing HIV propagation
amount of HIVp24 (HIV; MT-4 cells, SRPIN-1 0.5, 10, or 20 μM): decreased in an SRPIN-1 concentration-dependent manner
cell damage caused by sindbis virus propagation (sindbis virus): dramatically suppressed
propagation of sindbis virus (plaque assay) (sindbis virus): significantly suppressed the propagation of sindbis virus in a concentration-dependent manner
inhibitory effect on PKA (PKA): did not exhibit an inhibitory effect
death (Slc:SD rats; oral 2000 mg/kg, observed for 14 days): none of the male and female rats died
death (Slc:SD rats; oral 125, 250, 500, 1000, or 2000 mg/kg, two days after administration): None of the male and female rats died
general condition (Slc:SD rats; rat, in vivo, po, 2000 mg/kg): no abnormalities were detectable in their general condition
inhibitory effect on PRP4 (PRP4): did not exhibit an inhibitory effect
HA antibody signal (HA-SRp75) (SRp75 protein): weakened depending on the concentration of SRPIN-1
inhibitory effect on SRPK2 (SRPK2): did not exhibit an inhibitory effect
IC50 (SRPK1): ~400 nM
SARS virus propagation, concentration dependence (plaque assay) (SARS virus (FFM-1)): suppress SARS virus propagation in a concentration-dependent manner
SARS virus propagation (plaque assay) (SARS virus (FFM-1); Vero cells, 40 μM, 48 hours): significantly suppressed SARS virus propagation
viral propagation-suppressing effect compared with Compound No. 349 (SARS virus (FFM-1); Vero cells, SARS virus): stronger than that of the analog compound (Compound No. 349)
increase in the number of cells with structural and numerical chromosomal abnormalities ([1]; continuous treatment method (24 hours), 5, 1.58, or 0.5 mg/ml): negative (When the frequency of cell abnormality was less than 5%, the testing substance was judged to be negative)
increase in the number of cells with structural and numerical chromosomal abnormalities ([1]; short treatment method (+S9 mix, six hours), 5, 1.58, or 0.5 mg/ml): negative (When the frequency of cell abnormality was less than 5%, the testing substance was judged to be negative)
morphological changes and cell death caused by cytomegalovirus infection (Cytomegalovirus; 20 μM, seven days after infection): neither abnormal morphological changes nor cell death were detectable
morphological changes induced by the compound (Cytomegalovirus; 40 μM): Partial morphological changes thought to be induced by SRPIN-1 were detectable
inhibitory effect on PKC (PKC): did not exhibit an inhibitory effect
